We go through two molecules from patent US20040006236A1, “Diaminopropionic acid derivatives” (priority 1999, published 2004).

The subject of assay [1] is T lymphocyte proliferation (C57BI/6 spleen cells with irradiated BALB/c spleen cells). Description: Mixed lymphocyte reaction (MLR), one-way. In kind it is cell-based, mice. Conditions: Mus musculus, T-lymphocyte; read-out: MLR IC50. In outline: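 Irradiated BALB/c spleen cells mixed with C57BI/6 spleen cells in RPMI1640/10% heat-inactivated FBS/2-mercaptoethanol, with serial antagonist dilutions; 3 days at 5% CO2. Tritiated thymidine (0.5 μCi/well) added on day 3; incorporation counted by liquid scintillation after a further 6 h.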

For assay [2], the target named is T1, LFA-1 binding to immobilized ICAM-1 (Homo sapiens, UniProt P05107+P20701).
T1 construct: made in house; host or cells: transfected 293 cells (LFA-1)
Description: LFA-1/ICAM-1 protein-protein assay (solid-phase ELISA). Conditions: read-out: LFA-1/ICAM-1 Protein-Protein Assay IC50. In outline:
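Human 5dICAM-Ig (ICAM-1 extracellular domain–IgG Fc) coated on plates; membrane-bound LFA-1 from transfected 293 cells (280 ng/mL) added with compound in Mn2+-containing HEPES buffer pH 7.2, 2 h at 37° C. Bound LFA-1 detected via anti-β2 antibody and HRP/TMB at 450 nm; IC50s determined.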
For orientation: An ELISA detects its analyte on a solid surface through an enzyme-linked reagent.

T1 sequence (P20701 26-1170): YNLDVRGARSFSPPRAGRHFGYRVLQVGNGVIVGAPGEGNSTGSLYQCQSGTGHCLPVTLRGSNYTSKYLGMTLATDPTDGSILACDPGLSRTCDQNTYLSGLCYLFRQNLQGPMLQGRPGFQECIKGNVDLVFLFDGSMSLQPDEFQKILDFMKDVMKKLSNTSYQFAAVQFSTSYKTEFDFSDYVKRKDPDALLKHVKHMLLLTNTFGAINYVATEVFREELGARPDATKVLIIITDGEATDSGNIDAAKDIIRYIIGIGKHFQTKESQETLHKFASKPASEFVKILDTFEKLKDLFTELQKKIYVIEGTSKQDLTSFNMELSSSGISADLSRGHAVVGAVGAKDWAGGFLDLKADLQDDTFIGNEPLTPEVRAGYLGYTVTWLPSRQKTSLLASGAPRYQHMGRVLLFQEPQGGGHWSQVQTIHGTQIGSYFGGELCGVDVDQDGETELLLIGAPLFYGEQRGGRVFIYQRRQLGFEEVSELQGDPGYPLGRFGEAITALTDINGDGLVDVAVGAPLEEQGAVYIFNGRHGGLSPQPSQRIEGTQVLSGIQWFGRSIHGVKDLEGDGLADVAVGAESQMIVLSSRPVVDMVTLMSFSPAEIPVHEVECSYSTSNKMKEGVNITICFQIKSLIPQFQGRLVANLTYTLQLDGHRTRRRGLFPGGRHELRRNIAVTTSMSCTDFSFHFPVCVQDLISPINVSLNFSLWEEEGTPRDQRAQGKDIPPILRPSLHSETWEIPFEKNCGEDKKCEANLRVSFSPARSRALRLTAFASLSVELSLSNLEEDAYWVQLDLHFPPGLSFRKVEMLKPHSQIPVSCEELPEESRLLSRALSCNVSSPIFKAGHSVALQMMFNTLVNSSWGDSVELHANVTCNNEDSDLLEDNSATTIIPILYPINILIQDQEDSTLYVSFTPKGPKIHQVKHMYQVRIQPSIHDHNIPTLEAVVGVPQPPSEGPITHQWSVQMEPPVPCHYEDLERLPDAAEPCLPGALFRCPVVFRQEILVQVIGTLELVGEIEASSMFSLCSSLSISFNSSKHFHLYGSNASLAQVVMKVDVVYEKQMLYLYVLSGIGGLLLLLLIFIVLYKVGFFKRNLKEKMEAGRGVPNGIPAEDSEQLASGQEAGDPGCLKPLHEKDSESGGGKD
T1 sequence (P05107 23-769): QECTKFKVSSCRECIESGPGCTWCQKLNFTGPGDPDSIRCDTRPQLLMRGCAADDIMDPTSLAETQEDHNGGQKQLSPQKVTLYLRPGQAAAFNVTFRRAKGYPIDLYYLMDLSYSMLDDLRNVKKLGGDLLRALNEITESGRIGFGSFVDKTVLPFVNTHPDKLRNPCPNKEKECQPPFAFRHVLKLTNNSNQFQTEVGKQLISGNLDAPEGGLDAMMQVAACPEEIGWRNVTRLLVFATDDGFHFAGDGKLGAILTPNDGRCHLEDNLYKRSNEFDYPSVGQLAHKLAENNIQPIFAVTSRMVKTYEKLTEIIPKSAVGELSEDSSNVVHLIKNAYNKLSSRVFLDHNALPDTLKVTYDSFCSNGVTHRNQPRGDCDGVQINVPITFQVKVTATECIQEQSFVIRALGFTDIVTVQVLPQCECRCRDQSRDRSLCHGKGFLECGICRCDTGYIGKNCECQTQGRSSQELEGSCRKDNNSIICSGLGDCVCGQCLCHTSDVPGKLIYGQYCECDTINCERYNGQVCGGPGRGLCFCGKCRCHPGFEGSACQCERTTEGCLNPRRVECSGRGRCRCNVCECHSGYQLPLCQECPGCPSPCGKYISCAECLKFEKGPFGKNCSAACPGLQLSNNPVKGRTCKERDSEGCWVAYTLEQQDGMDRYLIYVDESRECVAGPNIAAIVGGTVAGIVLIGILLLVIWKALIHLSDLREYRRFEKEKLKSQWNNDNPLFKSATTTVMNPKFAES

Turning to `O=C(NCc1cccc(O)c1)c1cc(Cl)c(C(=O)N[C@@H](CNC(=O)c2cc(F)cc(F)c2)C(=O)O)c(Cl)c1` [Example 344, N-[2,6-dichloro-4-[[[(3-hydroxyphenyl)methyl]amino]carbonyl]benzoyl]-3-[(3,5-difluorobenzoyl)amino]-L-alanine], the IC50 in assay [1] was 34 nM; in assay [2], 0.3 nM.

Regarding `O=C(NCc1cccc(O)c1)c1cc(Cl)c(C(=O)N[C@@H](CNC(=O)c2cc(O)cc(O)c2)C(=O)O)c(Cl)c1` [Example 345, N-[2,6-dichloro-4-[[[(3-hydroxyphenyl)methyl]amino]carbonyl]benzoyl]-3-(3,5-dihydroxybenzoylamino)-L-alanine], the IC50 turned out to be 2 nM in assay [1] and 0.2 nM in assay [2].
